Measured values: US20230035491A1, “METHODS, KITS AND COMPOSITIONS FOR REDUCING CARDIOTOXICITY ASSOCIATED WITH CANCER THERAPIES” (Baruch S. Blumberg Institute, priority 2019, published 2023)
Structures can show the parent of a compound that is named as a salt.

Key:
iPSC-CM = assay: CellTiter-Glo luminescent cell viability assay, iPSC-derived cardiomyocytes; type: cell-based; details: 5 μM Dox plus 50 μM compound vs Dox alone
[1] = system: breast cancer cell lines (BCa); assay: CellTiter-Glo luminescent cell viability assay, breast cancer cell lines; type: cell-based; details: 5 μM Dox plus 50 μM compound vs Dox alone
[2] = system: Isolated canine cardiac myocytes; assay: DOX-induced apoptosis of isolated canine cardiac myocytes; type: cell-based; details: 24 hours
[3] = system: breast cancer cell line Py8119; assay: Py8119 cell proliferation by cell number using methylene blue; type: cell-based; details: Ranolazine 0.156 um to 20 um, alone or with 5 uM Dox
Protocol: The breast cancer cell line Py8119 was treated with either increasing doses of Ranolazine (0.156 um to 20 um) or with the addition of doxorubicin. (5 uM Dox). Cell proliferation was established by cell number using methylene blue.

CCR5, CCL3, CCL5 = system: CCR5, CCL3, CCL5; design: species or system human
Protocol: FIGS. 4a through 4f show myocardial biopsies from patients with either doxorubicin-induced cardiomyopathy or donor control heart. […] Samples were obtained from the Sydney heart bank. Biopsies were obtained at the time of transplant for the doxorubicin affected hearts. […] Heart biopsies were fixed in paraformaldehyde overnight prior to being embedded in paraffin blocks. Blocks were sectioned at […]. After deparaffinization and rehydration, antigen retrieval was performed in Tris buffer (pH 9) on the resulting sections. After blocking, sections were incubated with an antibody against CCR5, CCL3, or CCL5. Anti-CCR5 antibody binding was visualized using an HRP-conjugated second antibody and NOVA red substrate. Haematoxylin was used for nuclear visualization.

[4] = Chronic DOX model, cardiac function by echocardiography; type: in vivo; details: female mice, DOX 8×3 mg/kg over 2 weeks; 6 and 8 weeks after first injections; vs saline
Protocol: Female mice (n=10) were treated with a chronic regimen of DOX (8×3 mg/kg over 2 weeks) and cardiac function assessed by echocardiography at 6 and 8 weeks after the first injections. Echocardiographic imaging was employed using the Vevo 2100 preclinical high-frequency ultrasound system (Visualsonics, Toronto, Canada). M-mode analysis of the resulting images provided indices of cardiac systolic and diastolic function. For FIG. 5a, the ejection fraction is the percentage of the left ventricular volume expelled with each cardiac contraction. For FIG. 5b, the ESD is the […]. For FIG. 5c, the ESV is the end systolic volume or the volume of the heart at the end of contraction (systole). For FIG. 5d, the PWs is the posterior wall thickness at end of systole or the thickness of the myocardium at maximal ventricular contraction. All data are compared to the saline treated group and represent mean+/−SEM, p<0.01.

CCR5 = CCR5 immunostaining of myocardium after chronic regimen of DOX; type: in vivo, mice; details: DOX 8×3 mg/kg IP, excised after 8 weeks; vs saline
Protocol: Mice were treated with a chronic regimen of DOX (8×3 mg/kg, IP, n=12) or saline (n=10), excised after 8 weeks and fixed in paraformaldehyde overnight before being embedded in paraffin blocks. Blocks were sectioned (5 μm) and, after deparaffinization and rehydration, antigen retrieval was performed in Tris buffer (pH 9). After blocking, sections were incubated with an antibody against CCR5. Anti-CCR5 antibody binding was visualized using an HRP-conjugated second antibody and Nova red substitute. Haematoxylin was used for nuclear visualization.

miRNAs targeting CCR5 = assay: miRNA expression profiles of hearts after acute doxorubicin regimen (Illumina miRNA arrays); type: in vivo, rats; details: acute doxorubicin 1x 20 mg/kg IP, n=6, vs saline
Source text: In silico analysis using the miRdb database (www.mirdb.org) identified a number of miRNAs that could potentially regulate translation of CCR5 in rats (see X-axis for identification of individual miRNAs). […] Data rare represented as fold change to saline treated rats and shown as mean+/−SEM, * p<0.01.

[5] = system: BCa cells (SUM-159, FC-IBC-02, MDA-MB-231); assay: CCR5 expression in BCa cells grown in doxorubicin, flow cytometry; type: cell-based; details: 10-40 nmol/L doxorubicin for up to 80 days vs untreated
Protocol: BCa cells were grown in vitro under standard conditions for control (“solid bar”) or DOX treatment (“non-solid bar”) for up to 80 days. SUM-159 cells were grown in 10 nmol/L doxorubicin for 1 month, then 20 nmol/L doxorubicin for 1 month, and then 40 nmol/L doxorubicin for 3 weeks, prior to analysis. FC-IBC-02 cells were grown in 40 nmol/L doxorubicin for 1 month prior to analysis. MDA-MB-231 cells were grown in 20 nmol/L doxorubicin for 1 month then 40 nmol/L doxorubicin for 3 weeks prior to analysis. At the conclusion of the 80 days, surviving cells were harvested and pelleted by centrifugation. Cells were suspended in PBS containing normal mouse IgG and rat anti-mouse Fcg III/II receptor antibody to block nonspecific binding. Cells were exposed allophycocyanin (APC)-labeled CCR5 antibody for 1 hour at 4° C. After washing, analysis of CCR5 expression on cell was conducted on FACSCalibur flow cytometer (BD Biosciences). The data was analyzed with FlowJo software (Tree Star, Inc.). […] Data are % cells expressing CCR5 (mean of n=3 determinations).

cardiac progenitor iPSCs [6] = assay: DOX killing and CCR5 expression in cardiac progenitor iPSCs, propidium iodide / flow cytometry; type: cell-based
Protocol: Some cells were suspended in PBS containing normal mouse IgG and rat anti-mouse Fcg III/II receptor antibody. Cells were exposed allophycocyanin (APC)-labeled CCR5 antibody for 1 hour at 4° C. After washing, analysis of CCR5 expression on cell was conducted on FACSCalibur flow cytometer (BD Biosciences). The data was analyzed with FlowJo software (Tree Star, Inc.). […] As such, CCR5+ cardiac progenitor cells are more prone to DOX induced cell death from than their CCR5− counterparts.

[7] = Survival of doxorubicin treated mice over 90 days; type: in vivo
Source text: Survival was documented over the first 90 days after the beginning of treatment.

[8] = system: CCR5 ligands CCL3, CCL5, CCL4; details: doxorubicin treated patients (n=7) vs donor controls (n=9); cited from earlier work
[9] = system: CCR5, CCL3/MIP-la, CCL5/RANTES; details: chronic or acute DOX regimen vs saline; cited from earlier work
SUM-159 cells = assay: BCa lung metastasis after intracardiac injection of SUM-159 Luc2-eGFP cells, bioluminescence imaging; type: in vivo, NOD/SCID mice; details: Maraviroc 8 mg/kg every 12 hr oral gavage vs vehicle; n=6
Protocol: SUM-159 cells expressing Luc2-eGFP were introduced by intracardiac injection into 8-week old female NOD/SCID mice at 2×10^5 cells/mouse). […] Bioluminescence imaging was performed after intraperitoneal (i.p.) injection with 200 μL of D-luciferin at 30 mg/ml.

cardiac progenitor iPSCs [10] = assay: Cell death of cardiac precursor iPSCs with saline or DOX and maraviroc, propidium iodide; type: cell-based; details: 1 μM DOX plus maraviroc (0-100 m), 24 hours, n=3
Source text: (mean+/−SD, n=3). […] Data represents mean+/−SD (n=3).

[11] = Doxorubicin induced cardiac dysfunction, echocardiography 8 weeks after final dose; type: in vivo, mice; details: doxorubicin 8×3 mg/kg over 2 weeks with maraviroc 16 mg/kg twice daily gavage vs vehicle; n=15 per group
Source text: A representative example of the echocardiogram is shown. […] Indices include Left Ventricular End Systolic Dimension (LVESD) and Volume (LVESV), which are the diameter and volume of the left ventricle at the end of systole respectively, ejection fraction (EF) which is the percentage of the left ventricular volume expelled with each cardiac contraction (%), and fractional shortening (FS) which is the proportion of diastolic dimension lost in systole (%).

MDA-MB-231 BCa cells = details: Veliparib plus maraviroc vs vehicle, 72 hours, n=3
Protocol: After 24 hours, cells were harvested and pelleted by centrifugation. For cell death, cells were incubated with RNase A and propidium iodide to highlight DNA content and nuclear morphology. Cell death was identified by counting cells with nuclei that were smaller and with less DNA content compared to normal diploid cells. […] (mean+/−SD, n=3). […] MDA-MB-231 BCa cells were plated onto 96-well plates, allowed to adhere overnight, then treated with drug for 72 hours. Cells were incubated with DNA damaging agent (Veliparib) and either vehicle or maraviroc. A measurement of cell number was made at both the time of treatment (time 0) and after drug treatment (time 72) using CTG reagent (Promega, Madison, Wis.) to allow for calculation of percent growth inhibition and the dose required to inhibit growth rate by 50% (GR50). […] Data represents mean+/−SD (n=3).

[12] = anthracycline cardiotoxicity myocardium (n=2) vs normal donor heart (n=2)

For `COc1ccccc1OCC(O)CN1CCN(CC(=O)Nc2c(C)cccc2C)CC1` (centres unmarked) [Ranolazine dihydrochloride], the “survival of iPSC-CM” value (iPSC-CM) was “improved survival”, the “survival of BCa cells” value [1] was “reduced survival” and the “DOX-induced cardiac toxicity (levels of apoptosis)” value ([2]; pretreated with ranolazine dihydrochloride 50 μM, then DOX 2 μM, n=3) was “reduces DOX-induced cardiac toxicity”.
For `COc1ccccc1OCC(O)CN1CCN(CC(=O)Nc2c(C)cccc2C)CC1` (centres unmarked) [Ranolazine], the “breast cancer cell killing (cell proliferation)” value [3] was “enhance breast cancer cell killing in a dose dependent manner”.
In the case of `COc1cccc2c1C(=O)c1c(O)c3c(c(O)c1C2=O)C[C@@](O)(C(=O)CO)C[C@@H]3O[C@H]1C[C@H](N)[C@H](O)[C@H](C)O1` [doxorubicin], the “Average ejection fraction (EF)” value (CCR5, CCL3, CCL5) is reported as 25-35%, the “CCL3 expression in myocardium” value (CCR5, CCL3, CCL5; [12]) is reported as “increased” and the “CCL5 expression in myocardium” value (CCR5, CCL3, CCL5; [12]) is reported as “increased”. For the same compound, the “CCR5 expression in myocardium” value (CCR5, CCL3, CCL5; [12]) was “increased”, the “cardiac function (ejection fraction, ESD, ESV, PWs)” value [4] was “induction of stable mild heart failure” and the “CCR5 expression in the myocardium” value (CCR5) was “increased”. For the same compound, the “miRNAs targeting CCR5 with decreased expression in the myocardium” value (miRNAs targeting CCR5) was 8/11, the “CCR5 expression (% cells expressing CCR5)” value [5] was “significantly increased” and the cell death (cardiac progenitor iPSCs [6]; DOX 0-10 m, 24 hours, n=5) was “promotes cell death in a dose dependent manner”. For the same compound, the CCR5 expression (cardiac progenitor iPSCs [6]; DOX 24 hours, n=3) was “increases CCR5 expression”, the “proportion of DOX-induced apoptotic cell death” value ([2]; DOX 10 μM, no pretreatment) was 17% and the “survival over first 90 days” value ([7]; doxorubicin 8x 3 mg/kg over 2 weeks with vehicle control) was 7/15. For the same compound, the “CCL3 mRNA expression in the heart” value [8] was “increased mRNA expression”, the “CCL5 mRNA expression in the heart” value [8] was “increased mRNA expression” and the “CCL3 mRNA expression in the heart” value [9] was “increased mRNA expression”. The “CCL5 mRNA expression in the heart” value [9] was “increased mRNA expression”.
In the case of maraviroc, the BCa lung metastasis (SUM-159 cells) is reported as “reduced”, the “DOX induced cell death” value (cardiac progenitor iPSCs [10]) is reported as “significantly, and dose dependently, rescues DOX induced cell death” and the “survival of iPSC-CM” value (iPSC-CM) is reported as “improved survival”. The “survival of BCa cells” value [1] was “reduced survival”, the “proportion of DOX-induced apoptotic cell death” value ([2]; pretreated with maraviroc 100 μM, then DOX 10 μM) was 3% and the “survival over first 90 days” value ([7]; doxorubicin 8x 3 mg/kg over 2 weeks with maraviroc 16 mg/kg twice daily gavage) was 10/15. The “enhanced survival over the vehicle in DOX treated mice” value ([7]; doxorubicin with maraviroc vs doxorubicin with vehicle) was 2.77 fold, the “doxorubicin induced cardiac dysfunction (LVESD, LVESV, EF, FS)” value [11] was “prevents doxorubicin induced cardiac dysfunction” and the “BCa cell killing in combination with veliparib” value (MDA-MB-231 BCa cells) was “synergistically promotes BCa cell killing”.
